Experimental data reported in article PMC10057893, “Synthesis and Biological Evaluation of New Schiff Bases Derived from 4-Amino-5-(3-fluorophenyl)-1,2,4-triazole-3-thione” (Molecules, 2023).
≈ marks a conversion by molar mass, not a printed value. Like-named read-outs stand apart in the source and are kept apart here.

Experiments:
[1] = system: reference strains of bacteria; test: Positive control antibiotics, broth microdilution MIC; type: cell-based; details: range over the bacteria
Experimental: (§1) The reference antibiotics used during our studies for the selected species of reference bacteria were ciprofloxacin and cefuroxime (Merck KGaA, Darmstadt, Germany). Nystatin (Merck KGaA, Darmstadt, Germany), a known antifungal antibiotic, was used as a positive control for Candida spp.
(§2) All reference antimicrobials against bacteria or fungi were tested in a final concentration range from 0.0049 to 10 µg/mL. The tested Schiff bases were two-fold diluted in the concentration range from 0.49 to 1000 μg/mL in culture broth medium for bacteria or fungi. The medium with DMSO at the final concentrations and without the tested Schiff bases served as a control—no microbial growth inhibition was observed. […]
The minimal inhibitory concentration (MIC) was determined with the microdilution technique using 96-well polystyrene microplates (Medlab, Poland), as indicated by the European Committee on Antimicrobial Susceptibility Testing (EUCAST) guidelines. […] After the incubation, the results were spectrophotometrically determined in Biotek ELx800 (Biokom, Janki, Poland) at 600 nm (OD600). The lowest concentration of the tested compounds with the absence of bacterial growth was determined as an MIC. […]

[2] = system: yeast reference strains (Candida spp.); test: Positive control antifungal, broth microdilution MIC; type: cell-based; details: range over yeast reference strains
Experimental: as §1
as §2, with “observed. Three types of control were also carried out simultaneously: (1) serial dilution of the tested Schiff bases in broth medium (without bacteria or fungi) in the same concentration range, (2) a growth control for each strain in broth medium and agar medium for bacteria or fungi, and (3) a negative control of sterile broth or agar medium.” for “observed.”
After incubation, 5 μL of the broth media cultured with bacteria or fungi were removed from each well of the plates used in the MIC experiments. […] After incubation, a visual reading of MBC or MFC values was made. […]

[3] = system: Bacillus subtilis ATCC 6633; test: Broth microdilution MIC/MBC, antibacterial; type: cell-based; details: ATCC6633
Experimental: (§3) The minimal inhibitory concentration (MIC) was determined with the microdilution technique using 96-well polystyrene microplates (Medlab, Poland), as indicated by the European Committee on Antimicrobial Susceptibility Testing (EUCAST) guidelines. In this process, stock solutions of each tested Schiff base dissolved in dimethylsulphoxide (DMSO, Stanlab, Poland) were used at a concentration of 50 mg/mL. Before in vitro antibacterial activity detection, the basic concentration of 1000 µg/mL of each compound was prepared with Mueller–Hinton broth medium (MHB, BioMaxima, Lublin, Poland). The experiment was prepared using Mueller–Hinton broth medium in 96-well microplates. A series of two-fold dilutions of the tested compounds in the concentration range from 0.49 to 1000 μg/mL was made in culture broth medium. Then, 2 μL of bacterial inoculum with a density of 0.5 McFarland standard was added to each well. Each well was filled with a total volume of 100 μL. Then, the microtiter plates were incubated for 18 ± 2 h at 35 °C. After the incubation, the results were spectrophotometrically determined in Biotek ELx800 (Biokom, Janki, Poland) at 600 nm (OD600). The lowest concentration of the tested compounds with the absence of bacterial growth was determined as an MIC. Three replicates for each strain and compound were performed.
(§4) After incubation, 5 μL of the broth media cultured with bacteria or fungi were removed from each well of the plates used in the MIC experiments. Next, they were culturd onto the surface of the MHA medium (BioMaxima, Lublin, Poland) plate for bacteria or MHA +2% glucose plate for yeasts. The inoculated plates were incubated in the conditions mentioned above. After incubation, a visual reading of MBC or MFC values was made. […] Three replicates for each strain and compound were performed.

[4] = system: Escherichia coli ATCC 25922; test: Broth microdilution MIC/MBC, antibacterial; type: cell-based; details: ATCC25922, Escherichia coli ATCC 25922
Experimental: as §3, §4

[5] = system: Klebsiella pneumoniae ATCC 13883; test: Broth microdilution MIC/MBC, antibacterial; type: cell-based; details: ATCC13883, Klebsiella pneumoniae ATCC 13883
Experimental: as §3, §4

[6] = system: Micrococcus luteus ATCC 10240; test: Broth microdilution MIC/MBC, antibacterial; type: cell-based; details: ATCC10240
Experimental: as §3, §4

[7] = system: Pseudomonas aeruginosa ATCC 27853; test: Broth microdilution MIC/MBC, antibacterial; type: cell-based; details: ATCC27853
Experimental: as §3, §4

[8] = system: Staphylococcus aureus ATCC 6538; test: Broth microdilution MIC/MBC, antibacterial; type: cell-based; details: ATCC6538
Experimental: as §3, §4

[9] = system: Staphylococcus epidermidis ATCC 12228; test: Broth microdilution MIC/MBC, antibacterial; type: cell-based; details: ATCC12228
Experimental: as §3, §4

[10] = system: Candida albicans ATCC 10231; test: Broth microdilution MIC/MFC, antifungal; type: cell-based; details: for MIC: ATCC10231
Experimental: (§5) To determine the antifungal activity of the newly synthesized Schiff bases against the reference strains of Candida spp., the broth microdilution method was used according to the EUCAST [52] and Clinical and Laboratory Standards Institute (CLSI) guidelines with some modifications to the medium. Before in vitro antifungal activity detection, the basic concentration of 1000 µg/mL of each compound was prepared with Mueller–Hinton broth (BioMaxima, Lublin, Poland) supplemented with 2% glucose (MHB+2% glucose). […] The final concentrations of the Schiff bases ranged from […] to 1000 µg/mL. All the reference strains of Candida spp. used were first subcultured to the Mueller–Hinton agar medium (BioMaxima, Lublin, Poland) with 2% glucose (MHA +2% glucose) at 37 °C for 24 h. Next, 2 µL of appropriate fungal suspensions was added to each well containing 100 µL of MHB + 2% glucose and the various concentrations of the tested Schiff bases.
as §4

Candida auris CDC B11903 = test: Broth microdilution MIC/MFC, antifungal; type: cell-based; details: Candidozyma auris, CDCB11903
Experimental: as §5, §4

[11] = system: Candida glabrata ATCC 15126; test: Broth microdilution MIC/MFC, antifungal; type: cell-based; details: Nakaseomyces glabratus, ATCC15126
Experimental: as §5, §4

[12] = system: Candida glabrata ATCC 90030; test: Broth microdilution MIC/MFC, antifungal; type: cell-based; details: Nakaseomyces glabratus, ATCC90030
Experimental: as §5, §4

[13] = system: Candida krusei ATCC 14243; test: Broth microdilution MIC/MFC, antifungal; type: cell-based; details: Pichia kudriavzevii, ATCC14243
Experimental: as §5, §4

[14] = system: Candida lusitaniae ATCC 3449; test: Broth microdilution MIC/MFC, antifungal; type: cell-based; details: Clavispora lusitaniae, ATCC3449
Experimental: as §5, §4

[15] = system: Candida tropicalis ATCC 1369; test: Broth microdilution MIC/MFC, antifungal; type: cell-based; details: ATCC1369
Experimental: as §5, §4

MDA-MB-231 = test: MTT cell viability assay; type: cell-based, human; details: Homo sapiens, MDA-MB-231, MTT, read-out: Cytotoxic activity IC50
Experimental: (§6) All the cell lines were purchased from the American Type Culture Collection (ATCC, Rockville, MD, USA) and cultured in strictly defined conditions according to the recommended ATCC protocol. The PC3 cells were cultured in RPMI 1640 (Roswell Park Memorial Institute, Biowest SAS, Nuaillé, France), while the MDA-MB-231 and HaCaT cells were maintained in DMEM (Dulbecco’s Modified Eagle’s Medium, Biowest SAS, Nuaillé, France) supplemented with 1% streptomycin and penicillin and in 10% heat-inactivated fetal bovine serum (FBS, Gibco BRL San Francisco, CA, USA) with 1% streptomycin and penicillin. The cells were incubated in a 37 °C/5% CO2 humidified incubator. They were cultured until 80–90% confluence was achieved. Then, they were harvested by treatment with 0.25% trypsin-0.02% EDTA (Gibco BRL, San Francisco, CA, USA) and used in the experiments. Untreated cells were used as a control. […] After 24 h of incubation, the culture medium was replaced with a fresh medium. […] Then, the medium was aspirated and formed formazan crystals were solubilized by adding isopropanol-DMSO mixture (1:1 vol). The intensity of the dissolved crystals was measured using a UVM 340 reader (ASYS Hitech GmbH, Eugendorf, Austria) at a wavelength of 570 nm. Cell viability was estimated by the percentage of MTT reduction in cells to which the tested compounds were added, compared to the control sample, where only the medium was added. The experiments were repeated three times. The IC50 was calculated using GraphPad Prism 9.0.0 (GraphPad Software).

PC3 = test: MTT cell viability assay; type: cell-based, human; details: Homo sapiens, PC-3, PC3, MTT, read-out: Cytotoxic activity IC50
Experimental: as §6

MTT cell viability assay = type: cell-based; details: human, HaCaT cells (immortal keratinocytes), HaCaT normal cell line, read-out: Cytotoxic activity IC50 (converted)
Experimental: as §6

[16] = system: tested strains of bacteria; set-up: method as in PMID 25412038; details: cited from earlier work
C. albicans = system: C. albicans; set-up: method as in PMID 25412038; details: cited from earlier work

Compound | MIC [3] [µg/mL] | MIC [4] [µg/mL] | MIC [5] [µg/mL] | MBC [6] [µg/mL] | MIC [6] [µg/mL] | MIC [7] [µg/mL] | MBC [8] [µg/mL] | MIC [8] [µg/mL] | MBC [9] [µg/mL] | MIC [9] [µg/mL] | MIC [10] [µg/mL] | MIC (Candida auris CDC B11903) [µg/mL] | MIC [11] [µg/mL] | MIC [12] [µg/mL] | MIC [13] [µg/mL] | MIC [14] [µg/mL] | MIC [15] [µg/mL] | IC50 (MDA-MB-231; 72 h (table footnote)) [µM] | IC50 (MDA-MB-231; same value in µg/mL) [µg/mL] | IC50 (PC3; 72 h (table footnote)) [µM] | also measured
O=C(O)c1cn(C2CC2)c2cc(N3CCNCC3)c(F)cc2c1=O [ciprofloxacin] |  |  |  |  |  |  |  |  |  |  |  |  |  |  |  |  |  |  |  |  | MIC [1]: 0.24 to 0.98 µg/mL (≈ 0.724 to 2.96 µM)
CO/N=C(\C(=O)N[C@@H]1C(=O)N2C(C(=O)O)=C(COC(N)=O)CS[C@H]12)c1ccco1 [cefuroxime] |  |  |  |  |  |  |  |  |  |  |  |  |  |  |  |  |  |  |  |  | MIC [1]: 0.24 to 62.5 µg/mL (≈ 0.566 to 147 µM)
C[C@@H]1[C@H](O)[C@@H](C)/C=C/C=C/CC/C=C/C=C/C=C/C=C/C(O[C@H]2O[C@H](C)[C@@H](O)[C@H](N)[C@@H]2O)CC2O[C@](O)(CC(O)C(O)CCC(O)CC(O)CC(O)CC(=O)O[C@H]1C)CC(O)C2C(=O)O (stereo partly drawn) [Nystatin] |  |  |  |  |  |  |  |  |  |  |  |  |  |  |  |  |  |  |  |  | MIC [2]: 0.24 to 0.48 µg/mL; MBC ([2]; printed MIC = MBC): 0.24 to 0.48 µg/mL
Fc1ccc(C=Nn2c(-c3cccc(F)c3)n[nH]c2=S)cc1 [RO7, 4-[(4-fluorobenzylidene)amino]-5-(3-fluorophenyl)-2,4-dihydro-3H-1,2,4-triazole-3-thione] | > 1000 | > 1000 | > 1000 | > 1000 | 250 (≈ 790 µM) | > 1000 | > 1000 | 500 (≈ 1580 µM) | > 1000 | 500 (≈ 1580 µM) | > 1000 | > 1000 | > 1000 | > 1000 | > 1000 | > 1000 | > 1000 | > 100 | > 31.6 | > 100 | IC50 (PC3; same value in µg/mL): > 31.6 µg/mL; IC50 at 72 h (MTT cell viability assay; 72 h (table footnote)): > 100 µM; IC50 at 72 h (MTT cell viability assay; same value in µg/mL): > 31.6 µg/mL; melting point: 217 to 218 °C; MICs [16]: 16 to 125 µg/mL; MIC (C. albicans): 4 µg/mL (≈ 12.6 µM)
COc1ccc(C=Nn2c(-c3cccc(F)c3)n[nH]c2=S)cc1 [RO4, 5-(3-fluorophenyl)-4-[(4-methoxybenzylidene)amino]-2,4-dihydro-3H-1,2,4-triazole-3-thione] | 1000 (≈ 3050 µM) | 1000 (≈ 3050 µM) | 1000 (≈ 3050 µM) | > 1000 | 125 (≈ 381 µM) | > 1000 | > 1000 | 500 (≈ 1520 µM) | > 1000 | 500 (≈ 1520 µM) | 62.5 (≈ 190 µM) | 1000 (≈ 3050 µM) | 1000 (≈ 3050 µM) | > 1000 | 500 (≈ 1520 µM) | 1000 (≈ 3050 µM) | 1000 (≈ 3050 µM) | > 100 | > 38.8 | > 100 | MBC [7]: > 1000 µg/mL; MFC [10]: >1000 µg/mL; MFC ([10]; ATCC10231, read-out: MFC): > 1000 µg/mL; MFC [13]: > 1000 µg/mL; IC50 (PC3; same value in µg/mL): > 38.8 µg/mL; IC50 at 72 h (MTT cell viability assay; 72 h (table footnote)): > 100 µM; IC50 at 72 h (MTT cell viability assay; same value in µg/mL): > 38.8 µg/mL; melting point: 215 to 216 °C
CCCCOc1ccc(C=Nn2c(-c3cccc(F)c3)n[nH]c2=S)cc1 [RO8, 4-[(4-butoxybenzylidene)amino]-5-(3-fluorophenyl)-2,4-dihydro-3H-1,2,4-triazole-3-thione] | 1000 (≈ 2700 µM) | 1000 (≈ 2700 µM) | > 1000 | > 1000 | 125 (≈ 337 µM) | > 1000 | > 1000 | 250 (≈ 675 µM) | > 1000 | 250 (≈ 675 µM) | 500 (≈ 1350 µM) | > 1000 | 500 (≈ 1350 µM) | > 1000 | > 1000 | > 1000 | > 1000 | > 100 | > 37 | > 100 | MFC ([10]; ATCC10231, read-out: MFC): > 1000 µg/mL; MFC [11]: > 1000 µg/mL; IC50 (PC3; same value in µg/mL): > 37 µg/mL; IC50 at 72 h (MTT cell viability assay; 72 h (table footnote)): > 100 µM; IC50 at 72 h (MTT cell viability assay; same value in µg/mL): > 37 µg/mL; melting point: 183 to 185 °C
